The source of these data is EPA's ToxRefDB 2.

Data set [1] deals with rat. To be noted: Combined chronic toxicity/carcinogenicity, wistar, Inhalation, Whole-Body, dose end: 125 week, group: systemic.
In data set [2] the test system is rat. Conditions: Prenatal developmental toxicity study, fischer, Inhalation, Whole-Body, dose end: 15 GD.
The subject of data set [3] is rat. To be noted: Neurotoxicity screening battery; fischer; Inhalation; Whole-Body; dose end: 24 week; group: cannot be grouped; systemic / in life observation / body weight / body weight.
Data set [4] concerns rat. Conditions: Multigenerational reproductive toxicity study; fischer; Inhalation; Whole-Body; dose end: 2 generation; group: parental; systemic / in life observation / body weight / body weight.
Data set [5] deals with rat. To be noted: Subchronic oral toxicity in rodents, other, Feed, dose end: 90 day, group: systemic.
For data set [6], the system named is dog. Conditions: Subchronic oral toxicity in nonrodent, beagle, Capsule, dose end: 90 day, group: systemic.
In data set [7] the test system is rat. Conditions: Prenatal developmental toxicity study; wistar; Oral; Gavage/Intubation; dose end: 18 GD; group: developmental; systemic / organ weight / epididymis / absolute + systemic / organ weight / liver / absolute.
In data set [8] the test system is rat. Conditions: Prenatal developmental toxicity study; wistar; Oral; Gavage/Intubation; dose end: 18 GD; group: developmental; systemic / organ weight / epididymis / absolute + systemic / organ weight / liver / absolute. The source holds these as a separate data set.
In data set [9] the test system is dog. To be noted: Chronic toxicity; beagle; Oral; Feed; dose end: 12 month; group: systemic; systemic / clinical chemistry / beta globulin / beta globulin + systemic / hematology / erythrocyte (rbc) count differential / erythrocyte (….
Data set [10] concerns mouse. Conditions: Carcinogenicity; cd1; Oral; Feed; dose end: 79 week; group: systemic; systemic / hematology / leukocyte (wbc) count differential / leukocyte (wbc) + systemic / hematology / lymphocyte / lymphocyte + systemic / ….
Data set [11] concerns rat. To be noted: Subchronic oral toxicity in rodents, sprague dawley, Feed, dose end: 90 day, group: systemic.
Data set [12] deals with dog. To be noted: Subchronic oral toxicity in nonrodent, beagle, Feed, dose end: 90 day, group: systemic.
The subject of data set [13] is rat. To be noted: Multigenerational reproductive toxicity study; long evans; Oral; Gavage/Intubation; dose end: 1 generation; group: offspring; systemic / organ weight / vagina / absolute + systemic / organ weight / vagina / relative to body weight.
Data set [14] relates to mouse. Conditions: Chronic toxicity, b6c3f1, Oral, Water, dose end: 104 week, group: systemic.
Data set [15] has as its system mouse. To be noted: Subchronic oral toxicity in rodents, b6c3f1, Water, dose end: 13 week, group: systemic.
Data set [16] has as its system rat. Conditions: Subchronic oral toxicity in rodents, fischer, Water, dose end: 25 week, group: systemic, systemic / in life observation / body weight / body weight gain.
The test system of data set [17] is rat. Conditions: Chronic toxicity; fischer; Oral; Water; dose end: 104 week; group: systemic; systemic / pathology microscopic / mammary gland / fibroadenoma.
The subject of data set [18] is rat. To be noted: Sub-acute repeat dose toxicity; wistar; Injection; Intravenous; dose end: 28 day; group: systemic; systemic / clinical chemistry / calcium / calcium.
The test system of data set [19] is mouse. To be noted: Combined chronic toxicity/carcinogenicity; other; Oral; Feed; dose end: 365 day; group: systemic; systemic / pathology microscopic / blood / lymphoma malignant.
Data set [20] relates to rat. Conditions: Combined chronic toxicity/carcinogenicity; fischer; Oral; Feed; dose end: 365 day; group: systemic; systemic / in life observation / body weight / body weight.
Data set [21] relates to mouse. To be noted: Carcinogenicity, b6c3f1, Oral, Feed, dose end: 24 month.
Data set [22] relates to rat. Conditions: Prenatal developmental toxicity study, sprague dawley, Oral, Gavage/Intubation, dose end: 15 GD.
The subject of data set [23] is rat. Conditions: Prenatal developmental toxicity study; sprague dawley; Oral; Feed; dose end: 15 GD; group: maternal; systemic / in life observation / body weight / body weight gain + systemic / in life observation / food consumption / food consumption.
The mark [24] stands for this setting: systemic / in life observation / body weight / body weight.
The mark [25] stands for this setting: group: developmental, developmental / developmental malformation / bone / supernumerary.
Setting [26] is: group: maternal, systemic / in life observation / body weight / body weight gain + systemic / in life observation / food consumption / food consumption.
The mark [27] stands for this setting: group: maternal, systemic / in life observation / body weight / body weight gain + systemic / in life observation / food consumption / food consumption + ….
Where [28] appears, read: systemic / in life observation / body weight / body weight gain.
Setting [29] is: systemic / in life observation / body weight / body weight gain + systemic / pathology microscopic / kidney / casts + systemic / pathology ….
Where [30] appears, read: systemic / clinical chemistry / [other] / [other] + systemic / clinical chemistry / bilirubin / total bilirubin + systemic / clinical ….
Setting [31] is: systemic / in life observation / body weight / body weight gain + systemic / organ weight / spleen / relative to body weight + systemic / ….
[32] abbreviates: systemic / pathology microscopic / blood / lymphoma malignant.
The mark [33] stands for this setting: systemic / pathology microscopic / blood / lymphoma malignant + systemic / in life observation / body weight / body weight.
Where [34] appears, read: systemic / in life observation / body weight / body weight gain + systemic / in life observation / mortality / mortality + systemic / ….
[35] abbreviates: group: cholinesterase, cholinesterase / cholinesterase / cholinesterase / brain cholinesterase (che).
Where [36] appears, read: group: cholinesterase, cholinesterase / cholinesterase / cholinesterase / brain cholinesterase (che) + cholinesterase / cholinesterase / cholinesterase / plasma ….
The mark [37] stands for this setting: group: systemic, systemic / in life observation / clinical signs / convulsions + systemic / pathology gross / lymph node / enlarged + systemic / pathology ….
Setting [38] is: group: developmental, systemic / in life observation / body weight / fetal weight.

As to `CC1CO1` (centres undefined) [1,2-Propylene oxide], the LEL in [1] (setting [24]) came out at 30 ppm; in data set [2] (setting [25]) it was 500 ppm; in data set [2] (setting [27]), 500 ppm; in [3], 100 ppm; in [4] it was 30 ppm. The NEL in data set [1] (setting [24]) was less than 30 ppm; in data set [2] (setting [25]) it was 300 ppm; in data set [2] (setting [27]) it was 300 ppm; in data set [3], 30 ppm; in data set [4] it was less than 30 ppm. For the same molecule, the LOAEL in [1] (systemic / pathology microscopic / nose / [other] + systemic / pathology microscopic / nose / hyperplasia) was 100 ppm; in [2] (setting [25]) it was 500 ppm; in [2] (setting [26]) it was 500 ppm; in data set [3] it was greater than 300 ppm; in data set [4], greater than 300 ppm. Besides, the NOAEL was 30 ppm in data set [1] (systemic / pathology microscopic / nose / [other] + systemic / pathology microscopic / nose / hyperplasia + systemic / pathology microscopic…); 300 ppm in data set [2] (setting [25]); 300 ppm in [2] (setting [27]); no less than 300 ppm in [3]; no less than 300 ppm in data set [4].
With `CCc1occc(=O)c1O` [2-Ethyl-3-hydroxy-4H-pyran-4-one], the LEL in data set [5] (setting [28]) turned out to be 500 mg/kg/day; in data set [6] (systemic / pathology microscopic / liver / hemosiderosis), 250 mg/kg/day. Also, the LOAEL in [5] (setting [29]) is greater than 1000 mg/kg/day; in data set [6] (setting [30]), greater than 500 mg/kg/day. Moreover, the NEL in data set [5] (setting [29]) worked out at 250 mg/kg/day; in data set [6] (systemic / clinical chemistry / bilirubin / total bilirubin + systemic / hematology / anemia / anemia - hemolytic + systemic / pathology …) it was 125 mg/kg/day. The NOAEL in [5] (setting [29]) is no less than 1000 mg/kg/day; in [6] (setting [30]), no less than 500 mg/kg/day.
`CCCCCCCCCc1ccc(O)cc1` [4-Nonylphenol]: in [7], the LEL came to 15 mg/kg/day, the LOAEL is greater than 75 mg/kg/day, the NEL stood at 3 mg/kg/day and the NOAEL was no less than 75 mg/kg/day. In data set [8], the LEL was 15 mg/kg/day, the LOAEL is greater than 75 mg/kg/day, the NEL worked out at 3 mg/kg/day and the NOAEL is no less than 75 mg/kg/day.
On to `COc1ccc(-c2ccccc2)cc1NNC(=O)OC(C)C` [Bifenazate], for which the LEL in [9] was determined as 8.95 mg/kg/day; in data set [10], 15.4 mg/kg/day; in data set [11] (systemic / clinical chemistry / protein / protein), 13.8 mg/kg/day; in data set [12] (setting [28]), 0.9 mg/kg/day. Besides, the LOAEL in data set [9] came to 8.95 mg/kg/day; in [10], 15.4 mg/kg/day; in data set [11] (setting [31]), 16.3 mg/kg/day; in data set [12] (systemic / hematology / mean corpuscular (cell) volume (mcv) / mean corpuscular (cell) volume (mcv) + systemic / hematology / mean …) it was 10.4 mg/kg/day. In addition, the NEL was 1.01 mg/kg/day in data set [9], 1.5 mg/kg/day in data set [10], 2.7 mg/kg/day in data set [11] (systemic / clinical chemistry / protein / protein + systemic / hematology / erythrocyte (rbc) count differential / erythrocyte (rbc) + …) and less than 0.9 mg/kg/day in data set [12] (setting [28]). Besides, the NOAEL in data set [9] amounted to 1.01 mg/kg/day; in data set [10] it was 1.5 mg/kg/day; in data set [11] (setting [31]), 3.2 mg/kg/day; in data set [12] (systemic / in life observation / body weight / body weight gain + systemic / hematology / mean corpuscular (cell) volume (mcv) / mean …), 0.9 mg/kg/day.
For `[O][Cl+][O-]` [Chlorine dioxide], in [13], the LEL is 10 mg/kg/day, the LOAEL is greater than 10 mg/kg/day, the NEL is 5 mg/kg/day and the NOAEL was no less than 10 mg/kg/day.
On to `O=C1CCCCC1` [Cyclohexanone], for which the LEL stood at 867 mg/kg/day in data set [14] (setting [32]); 3330 mg/kg/day in data set [15] (setting [28]); 325 mg/kg/day in [16]; 325 mg/kg/day in data set [17]; 100 mg/kg/day in data set [18]. In addition, the NEL in data set [14] (setting [32]) was less than 867 mg/kg/day; in data set [15] (setting [34]) it was 1730 mg/kg/day; in [16] it was 235 mg/kg/day; in data set [17], 165 mg/kg/day; in data set [18], 50 mg/kg/day. Also, the LOAEL in data set [14] (setting [33]) is greater than 3330 mg/kg/day; in data set [15] (setting [34]) it was greater than 6270 mg/kg/day; in data set [16], greater than 325 mg/kg/day; in data set [17], greater than 325 mg/kg/day; in data set [18], greater than 100 mg/kg/day. Also, the no-observed-adverse-effect level (NOAEL) in data set [14] (setting [33]) was no less than 3330 mg/kg/day; in [15] (setting [34]) it was no less than 6270 mg/kg/day; in data set [16], no less than 325 mg/kg/day; in data set [17], no less than 325 mg/kg/day; in data set [18], no less than 100 mg/kg/day.
`CCCCCC(N)=O` [Hexanamide]: in data set [19], the LEL came out at 1500 mg/kg/day, the LOAEL was greater than 1500 mg/kg/day, the NEL was less than 1500 mg/kg/day and the NOAEL was no less than 1500 mg/kg/day. Moreover, in data set [20], the LEL was 750 mg/kg/day, the LOAEL was greater than 750 mg/kg/day, the NEL is less than 750 mg/kg/day and the NOAEL was no less than 750 mg/kg/day.
Take `COP(=S)(OC)SCN1C(=O)c2ccccc2C1=O` [Phosmet]: the LOAEL is 1 mg/kg/day in data set [21] (setting [35]); 4 mg/kg/day in data set [21] (group: systemic, systemic / in life observation / clinical signs / convulsions); greater than 30 mg/kg/day in data set [22] (setting [38]); greater than 30 mg/kg/day in data set [22] (setting [27]); greater than 29 mg/kg/day in [23]. The NOAEL was less than 1 mg/kg/day in data set [21] (setting [35]); 1 mg/kg/day in [21] (group: systemic, systemic / in life observation / clinical signs / convulsions + systemic / pathology microscopic / liver / hepatocellular adenoma + systemic…); no less than 30 mg/kg/day in [22] (setting [38]); no less than 30 mg/kg/day in data set [22] (setting [27]); no less than 29 mg/kg/day in [23]. For the same molecule, the LEL in data set [21] (setting [36]) was found to be 1 mg/kg/day; in [21] (setting [37]) it was 1 mg/kg/day; in [22] (setting [38]) it was 5 mg/kg/day; in data set [22] (setting [26]) it was 20 mg/kg/day; in data set [23], 27 mg/kg/day. In addition, the NEL in data set [21] (setting [36]) was less than 1 mg/kg/day; in data set [21] (setting [37]) it was less than 1 mg/kg/day; in data set [22] (setting [38]), less than 5 mg/kg/day; in data set [22] (setting [27]) it was 10 mg/kg/day; in data set [23], 22 mg/kg/day.
